Measured values from patent publication US20080305186A1, “Method and Composition for the Treatment of Cardiac Hypertrophy” (BOARD OF REGENTS, THE UNIVERSITY OF TEXAS SYSTEM, priority 2007, published 2008).

Tested on: cardiac gene expression
Assay: Microarray analysis of cardiac gene expression (GeneChip Mouse Genome 430 2.0)
Type: in vivo, mice
Experimental: Microarray Sample Preparation and Analysis. Animal hearts were rapidly removed, and the atria and right ventricles were cut and immediately plunged into TRIzol Reagent (Life Technologies). Total RNA was isolated following the manufacturer's instructions, purified by phenol-chloroform extraction and then ethanol precipitation, and 20 μg further processed for microarray analysis. Briefly, cDNA synthesis, in vitro transcription, and labeling and fragmentation to produce the oligonucleotide probes were performed as instructed by the GeneChip manufacturer (Affymetrix). The probes were first hybridized to a test array (Affymetrix) and then to the GeneChip Mouse Genome 430 2.0 Array, using the GeneChip Hybridization Oven 640. The chips were washed in a GeneChip Fluidics Station 450 (Affymetrix), and the results were visualized with a GeneChip G7 scanner (Affymetrix). RMA normalization, pairwise comparisons, Student's t test and Benjamini and Hochberg correction were subsequently performed using GeneSifter (VizX Labs, Seattle, Wash.) and Spotfire DecisionSite 8.3 (Spotfire, Inc., Somerville, Mass.).
Effects on Gene Expression Profile. […] One mouse heart was used for each array, and was performed in triplicate, generating a total of 12 arrays. GeneSifter was used to perform RMA normalization, pairwise comparisons of averaged signal intensity values, and Student's t-test with Benjamini and Hochberg correction, and Spotfire was used to perform pairwise comparisons. […] Additionally, genes that were altered between any two N or cardiac hypertrophy samples were removed, as these alterations most likely represented normal variations between mice.

[1] = CH vs drug-treated isoproterenol mice
[2] = heart, drug + isoproterenol vs isoproterenol only
[3] = mouse heart, vs isoproterenol only (CH), CH vs normal 2.1
[4] = mouse heart, vs isoproterenol only (CH), CH vs normal 2.2
[5] = mouse heart, vs isoproterenol only (CH), CH vs normal 2.6
[6] = mouse heart, vs isoproterenol only (CH), CH vs normal 2.7
[7] = mouse heart, vs isoproterenol only (CH), CH vs normal 2.9
[8] = mouse heart, vs isoproterenol only (CH), CH vs normal 3.2
[9] = mouse heart, vs isoproterenol only (CH), CH vs normal 3.3
[10] = mouse heart, vs isoproterenol only (CH), CH vs normal 3.7
[11] = mouse heart, vs isoproterenol only (CH), CH vs normal 4.9

NC(=O)N1c2ccccc2C=Cc2ccccc21 [carbamazepine]
Number of Altered Genes, Average FC (1.5-fold) [1]: 709 | Number of Altered Genes, Average FC (2-fold) [1]: 1 | Number of Altered Genes, Minus disease variability [1]: 1 | Number of Altered Genes, Minus natural variability [1]: 1 | Number of Altered Genes, Reproducible [1]: 1 | Number of Altered Genes, Student's t test [1]: 306 | Number of Altered Genes, Correction (CH vs drug-treated isoproterenol mice, Benjamini and Hochberg): 1 | Number of Altered Genes, Disease-specific (CH vs drug-treated isoproterenol mice, of 779 genes altered N vs CH, altered in the reverse direction): 1 | Cytokine inducible SH2-containing protein 3 (Socs3), Microarray FC [2]: −2.4 FC | GATA binding protein 4 (Gata4), Microarray FC [2]: 2.1 FC | Lipocalin 2 (Lcn2), Microarray FC [2]: −1.6 FC | NADPH oxidase 4 (Nox4), Microarray FC [2]: −1.9 FC | Oncostatin receptor (Osmr), Microarray FC [2]: −1.7 FC | SET and MYND domain containing 1 (Smyd1), Microarray FC [2]: 1.7 FC | Serine protease inhibitor 2-2 (Spi2-2) (Serpin3n), Microarray FC [2]: −2.3 FC | FC Procollagen, type IV, alpha 1 (Col4a1), AW536690 (mouse heart, vs isoproterenol only (CH), CH vs normal 1.6): −1.8 fold | FC Fatty acid binding protein 4, adipocyte (Fabp4), BC002148 (mouse heart, vs isoproterenol only (CH), CH vs normal 1.8): −1.6 fold | FC Adenosine deaminase (Ada), NM_007398 [3]: −2.2 fold | FC EST, AV032095 [3]: −1.6 fold | FC EST, BE630073 [3]: −1.6 fold | FC Amine oxidase, copper containing 3 (Aoc3), NM_009675 [4]: −1.8 fold | FC CD14 antigen (CD14), NM_009841 [4]: −1.6 fold | FC Flavin containing monooxygenase 1 (Fmo1), BC011229 [4]: −1.6 fold | FC cDNA, BG075321 [4]: −1.6 fold | FC A disintegrin-like and metallopeptidase (reprolysin type) with thrombospondin (ADAMTS)-like 2 (Adamtsl2), AK020831 (mouse heart, vs isoproterenol only (CH), CH vs normal 2.3): −1.6 fold | FC Purine-nucleoside phosphorylase (Pnp), BC003788 (mouse heart, vs isoproterenol only (CH), CH vs normal 2.4): −1.7 fold | FC ESTs, AI447357 (mouse heart, vs isoproterenol only (CH), CH vs normal 2.5): −1.9 fold | FC Dipeptidase 1 (Dpep1), NM_007876 [5]: −1.6 fold | FC Fc fragment of IgG, low affinity IIIa, receptor (Fcrl3), BC027310 [5]: −1.6 fold | FC cDNA, AW552579 [5]: −1.7 fold | FC G7e protein, NM_033075 [6]: −1.6 fold | FC Mitogen activated protein kinase kinase kinase 8 (Map3k8), NM_007746 [6]: −1.7 fold | FC cDNA, BC019553 [6]: −2.2 fold | FC Decorin (Dcn), AV321547 [7]: −1.6 fold | FC Glycoprotein (transmembrane) nmb (Gpnmb), NM_053110 [7]: −1.5 fold | FC C-type lectin domain family 1, member a (Clec1a), BB035924 (mouse heart, vs isoproterenol only (CH), CH vs normal 3.1): −1.6 fold | FC CUB and zona pellucida-like domains 1 (Cuzd1), NM_008411 [8]: −1.5 fold | FC G7e protein, BC027314 [8]: −2.2 fold | FC Serine (or cysteine) peptidase inhibitor, clade A, member 3G (Serpina3g), BC002065 [8]: −1.7 fold | FC cDNA, BG297038 [8]: −2.9 fold | FC Pyruvate dehydrogenase kinase 4 (Pdk4), NM_013743 [9]: 1.7 fold | FC cDNA, AK012898 [9]: −2.0 fold | FC TRAF2 and K interacting kinase (Tnik), AI117633 (mouse heart, vs isoproterenol only (CH), CH vs normal 3.4): −1.7 fold | FC Interleukin-1 receptor-associated kinase 3 (Irak3), AV228493 (mouse heart, vs isoproterenol only (CH), CH vs normal 3.5): −1.6 fold | FC Mcf.2 transforming sequee-like (Mcf21), AV293368 [10]: −1.5 fold | FC cDNA, BE956710 [10]: −1.7 fold | FC Lipopolysaccharide binding protein (Lbp), NM_008489 (mouse heart, vs isoproterenol only (CH), CH vs normal 3.8): −1.8 fold | FC Nuclear factor of kappa light polypeptide gene enhaer in B-cells inhibitor, zeta (Nfkbiz), NM_030612 (mouse heart, vs isoproterenol only (CH), CH vs normal 3.9): −1.6 fold | FC Colony stimulating factor 2 receptor, beta 2, low-affinity (granulocyte-macrophage) (Csf2rb2), NM_007781 (mouse heart, vs isoproterenol only (CH), CH vs normal 4.1): −1.8 fold | FC NADPH oxidase 4 (Nox4), BC021378 (mouse heart, vs isoproterenol only (CH), CH vs normal 4.3): −1.9 fold | FC Calcium-sensitive chloride conductae protein-1 (Clca1), AF047838 (mouse heart, vs isoproterenol only (CH), CH vs normal 4.4): −1.8 fold | FC cDNA, AK008807 (mouse heart, vs isoproterenol only (CH), CH vs normal 4.5): −1.7 fold | FC Serum amyloid A 3 (Saa3), NM_011315 (mouse heart, vs isoproterenol only (CH), CH vs normal 4.7): −2.0 fold | FC Caer related gene-liver 1 (CRG-L1), AF282864 [11]: −1.5 fold | FC Calcium/calmodulin-dependent protein kinase II, beta (Camk2b), BG862223 [11]: −2.8 fold | FC Oostatin receptor (Osmr), NM_011019 (mouse heart, vs isoproterenol only (CH), CH vs normal 5.1): −1.7 fold | FC Cytokine inducible SH2-containing protein 3 (Socs3), BB241535 (mouse heart, vs isoproterenol only (CH), CH vs normal 6.0): −2.3 fold
